In ChEMBL document CHEMBL1201862, “PubChem BioAssay data set” (2004):
Active and inactive are the calls of the source.

What was measured:
[1] = biological target: T1, Oxysterols receptor LXR-beta (Homo sapiens, UniProt P55055); format: functional, cell-based
T1 sequence (P55055 whole entry): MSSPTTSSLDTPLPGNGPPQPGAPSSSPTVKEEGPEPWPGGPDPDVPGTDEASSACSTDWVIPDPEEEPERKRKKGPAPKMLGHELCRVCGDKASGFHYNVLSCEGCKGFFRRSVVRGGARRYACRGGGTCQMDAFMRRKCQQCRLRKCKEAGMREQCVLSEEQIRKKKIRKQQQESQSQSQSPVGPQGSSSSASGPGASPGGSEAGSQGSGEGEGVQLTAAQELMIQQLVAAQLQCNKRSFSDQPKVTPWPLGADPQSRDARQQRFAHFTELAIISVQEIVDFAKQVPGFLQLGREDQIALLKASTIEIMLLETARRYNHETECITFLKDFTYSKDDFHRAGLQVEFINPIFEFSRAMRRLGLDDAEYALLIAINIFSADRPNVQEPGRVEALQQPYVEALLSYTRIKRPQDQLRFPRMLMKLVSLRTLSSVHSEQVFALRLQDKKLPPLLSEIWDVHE

Protein skinhead-1 = biological target: T2, Protein skinhead-1 (Caenorhabditis elegans, UniProt P34707); format: functional
T2 sequence (P34707 whole entry): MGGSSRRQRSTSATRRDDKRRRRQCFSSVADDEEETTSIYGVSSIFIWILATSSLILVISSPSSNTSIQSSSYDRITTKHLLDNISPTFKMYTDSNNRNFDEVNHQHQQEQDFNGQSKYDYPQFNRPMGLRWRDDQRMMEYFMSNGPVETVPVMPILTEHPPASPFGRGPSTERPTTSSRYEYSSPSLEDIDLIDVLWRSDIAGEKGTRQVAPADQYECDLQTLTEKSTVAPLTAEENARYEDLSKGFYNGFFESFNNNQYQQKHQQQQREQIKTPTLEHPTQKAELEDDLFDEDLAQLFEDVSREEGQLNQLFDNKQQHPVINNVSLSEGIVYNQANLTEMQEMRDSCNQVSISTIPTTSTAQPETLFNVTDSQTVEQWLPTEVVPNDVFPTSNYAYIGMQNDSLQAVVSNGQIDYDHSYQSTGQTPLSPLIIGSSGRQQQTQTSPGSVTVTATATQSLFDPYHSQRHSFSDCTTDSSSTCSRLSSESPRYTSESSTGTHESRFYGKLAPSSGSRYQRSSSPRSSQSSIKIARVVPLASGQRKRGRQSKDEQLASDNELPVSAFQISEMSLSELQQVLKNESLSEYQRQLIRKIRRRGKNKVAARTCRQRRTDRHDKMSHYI

[2] = biological target: T1, Oxysterols receptor LXR-beta; format: functional, cell-based; remark: listed apart in the source
[3] = biological target: Disintegrin and metalloproteinase domain-containing protein 17 (Homo sapiens, UniProt P78536); test: exosite inhibitors of ADAM17, dose response, biochemical (AID 743260)
Disintegrin and metalloproteinase domain-containing protein 17, sequence (P78536 whole entry, the tested form may be a part): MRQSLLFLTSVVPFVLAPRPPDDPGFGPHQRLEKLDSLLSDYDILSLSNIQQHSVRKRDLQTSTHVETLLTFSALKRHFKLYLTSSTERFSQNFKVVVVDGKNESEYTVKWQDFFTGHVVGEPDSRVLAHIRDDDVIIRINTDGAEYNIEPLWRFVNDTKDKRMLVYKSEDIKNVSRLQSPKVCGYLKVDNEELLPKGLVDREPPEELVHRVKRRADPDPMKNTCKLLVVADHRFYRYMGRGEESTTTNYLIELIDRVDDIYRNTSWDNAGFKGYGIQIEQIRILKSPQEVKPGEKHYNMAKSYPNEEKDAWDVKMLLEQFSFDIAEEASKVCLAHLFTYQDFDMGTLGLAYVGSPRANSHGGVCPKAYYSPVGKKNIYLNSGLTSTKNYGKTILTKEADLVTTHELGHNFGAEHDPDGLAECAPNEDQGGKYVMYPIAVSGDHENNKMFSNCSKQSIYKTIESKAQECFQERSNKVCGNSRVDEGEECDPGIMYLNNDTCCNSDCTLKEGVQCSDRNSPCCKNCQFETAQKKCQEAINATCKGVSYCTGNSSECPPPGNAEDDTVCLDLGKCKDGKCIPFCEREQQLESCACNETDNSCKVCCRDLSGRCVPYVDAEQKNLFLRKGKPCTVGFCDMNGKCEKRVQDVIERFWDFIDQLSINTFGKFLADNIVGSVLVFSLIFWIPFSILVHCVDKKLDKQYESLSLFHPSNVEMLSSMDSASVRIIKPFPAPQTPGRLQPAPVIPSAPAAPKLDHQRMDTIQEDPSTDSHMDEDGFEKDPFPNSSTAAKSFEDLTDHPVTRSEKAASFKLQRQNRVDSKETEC

[4] = inhibition of ADAM10 peptide cleavage – biochemical, FRET peptide substrate, recombinant human ADAM10, selectivity assay for ADAM17 exosite inhibitor project, dose response (AID 743259);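 further: ADAM10 enzyme cleaving a FRET peptide substrate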
[5] = PAX8-dependent cell viability loss – plate reader, dry powder, dose response (AID 743049); format: functional, cell-based
[6] = inhibitors acting on PAX2 in cells – cell-based, plate reader, dry powder samples, selectivity assay for PAX8 inhibitor project, dose response (AID 743048); format: functional;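 further: HEK293 cells carrying a WT1 promoter luciferase reporter driven by expressed Pax2; potency is for inhibition of Pax2 driven reporter signal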
[7] = PAX5 cellular inhibition readout – cell-based, plate reader, dry powder samples, selectivity assay for PAX8 inhibitor project, dose response (AID 743047); format: functional;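 further: HEK293 cells carrying a Pax5 driven CD19 promoter luciferase reporter; potency of inhibitors that lower reporter luminescence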
[8] = COV434 cell viability loss – plate reader, dry powder, SA7, cytotoxicity control for PAX8 inhibitor project, dose response (AID 743145); format: functional, cell-based
Paired box protein Pax-8 = Paired box protein Pax-8 (Homo sapiens, UniProt Q06710); test: PAX8 transcriptional activity inhibition in RMG-I – RMG-I cells, luciferase, cherry-pick, dose response (AID 687027); format: functional, cell-based;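 further: luciferase reporter driven by Pax8 target thyroperoxidase promoter measured by SteadyGlo luminescence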
Paired box protein Pax-8, sequence (Q06710 whole entry): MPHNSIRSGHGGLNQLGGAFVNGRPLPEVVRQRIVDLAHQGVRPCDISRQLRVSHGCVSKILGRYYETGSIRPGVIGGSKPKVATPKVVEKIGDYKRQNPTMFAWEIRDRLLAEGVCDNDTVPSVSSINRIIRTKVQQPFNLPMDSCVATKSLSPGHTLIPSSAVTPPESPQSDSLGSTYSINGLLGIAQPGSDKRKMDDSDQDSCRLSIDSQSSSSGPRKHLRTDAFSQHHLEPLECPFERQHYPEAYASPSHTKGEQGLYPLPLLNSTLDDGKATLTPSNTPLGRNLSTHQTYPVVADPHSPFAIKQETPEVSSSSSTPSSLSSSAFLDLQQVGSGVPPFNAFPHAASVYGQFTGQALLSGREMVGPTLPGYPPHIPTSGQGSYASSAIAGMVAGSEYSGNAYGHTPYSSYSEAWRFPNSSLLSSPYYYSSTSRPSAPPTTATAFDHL

[9] = Dd2 malaria parasite growth inhibition potency – SYBR Green, dry powder samples, dose response (AID 1159566); format: functional, cell-based;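 further: potency for growth inhibition with lower SYBR green DNA signal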
[10] = toxicity to human HepG2 hepatoma cells – cell-based, plate reader, dry powder samples, cytotoxicity control, dose response (AID 1159569); format: functional;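 further: inhibitor potency with signal falling toward the positive control level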
[11] = YAP1 overexpression rescue of CTGF inhibition – DLD1 cells, RT-qPCR, cherry-pick, mechanism study for YAP1 pathway inhibitor project, dose response (AID 1053127); format: functional, cell-based; conditions: DLD-1
[12] = growth inhibition of yeast DHODH-expressing 3D7 parasites – SYBR Green, dry powder samples, dose response (AID 1159570); format: functional, cell-based;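 further: parasite growth measured after 72 hours of compound exposure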
[13] = P. falciparum Dd2 growth inhibitors, dose response, SYBR Green, cherry-picked samples (AID 1159567); format: functional, cell-based
[14] = growth inhibition of PfATP4-mutant resistant parasites – NITD609-resistant line, SYBR Green, dry powder, dose response (AID 1159571); format: functional, cell-based;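 further: parasites synchronized at ring stage by sorbitol before testing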
[15] = toxicity to human hepatoma HepG2 cells – cell-based, cherry-picked samples, cytotoxicity control, dose response (AID 1159577); format: functional
[16] = general mammalian cell viability loss – activator set, cherry-pick, cytotoxicity control for miR-122 modulator project, dose response (AID 720690); format: functional, cell-based;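 further: HEK293T human cells scored for general mammalian cytotoxicity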
[17] = viability loss in HepG2 liver cells – cell-based, ATP luminescence, cherry-pick, set 6, cytotoxicity control, dose response (AID 1053125); format: functional
CAAX prenyl protease 2 = biological target: T3, CAAX prenyl protease 2 (Saccharomyces cerevisiae S288c, UniProt Q03530); format: biochemical
T3 sequence (Q03530 whole entry): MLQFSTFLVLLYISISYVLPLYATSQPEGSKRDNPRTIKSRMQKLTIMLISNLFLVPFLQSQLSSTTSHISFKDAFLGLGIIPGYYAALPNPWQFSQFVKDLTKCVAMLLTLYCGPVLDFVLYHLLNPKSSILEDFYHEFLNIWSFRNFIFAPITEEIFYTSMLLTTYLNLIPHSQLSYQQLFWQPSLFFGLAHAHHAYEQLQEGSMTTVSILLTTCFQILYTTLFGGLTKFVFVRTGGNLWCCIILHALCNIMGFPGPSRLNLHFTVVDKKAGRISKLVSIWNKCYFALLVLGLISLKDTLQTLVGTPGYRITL

[18] = microbe, parasite or virus in culture; format: functional; conditions: Mycobacterium tuberculosis
[19] = M. tuberculosis growth inhibition, HTS (AID 449762); format: functional
Estrogen receptor = Estrogen receptor (Homo sapiens, UniProt P03372);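 further: potency for inhibiting coactivator peptide recruitment to the receptor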
Estrogen receptor, sequence (P03372 whole entry): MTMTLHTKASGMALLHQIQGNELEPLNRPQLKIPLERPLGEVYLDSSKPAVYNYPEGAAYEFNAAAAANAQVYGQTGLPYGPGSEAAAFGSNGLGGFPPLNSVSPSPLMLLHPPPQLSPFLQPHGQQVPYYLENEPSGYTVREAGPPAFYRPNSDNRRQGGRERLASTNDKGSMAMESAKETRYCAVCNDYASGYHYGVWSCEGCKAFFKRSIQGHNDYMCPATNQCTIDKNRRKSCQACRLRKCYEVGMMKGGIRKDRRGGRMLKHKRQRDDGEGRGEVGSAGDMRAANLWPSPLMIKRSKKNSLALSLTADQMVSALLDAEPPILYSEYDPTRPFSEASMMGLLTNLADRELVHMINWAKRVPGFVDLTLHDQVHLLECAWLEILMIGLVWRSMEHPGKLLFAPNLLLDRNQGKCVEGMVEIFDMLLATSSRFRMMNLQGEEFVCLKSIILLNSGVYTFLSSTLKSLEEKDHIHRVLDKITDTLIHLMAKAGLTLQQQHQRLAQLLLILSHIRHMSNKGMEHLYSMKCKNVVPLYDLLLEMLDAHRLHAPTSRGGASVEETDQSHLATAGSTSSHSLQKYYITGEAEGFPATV

Estrogen receptor beta [20] = biological target: T4, Estrogen receptor beta (Homo sapiens, UniProt Q92731); test: blockers of SRC-3 recruitment to ERβ – biochemical, ELISA, streptavidin-HRP readout, orthogonal assay, confirmation (AID 1060)
T4 sequence (Q92731 whole entry): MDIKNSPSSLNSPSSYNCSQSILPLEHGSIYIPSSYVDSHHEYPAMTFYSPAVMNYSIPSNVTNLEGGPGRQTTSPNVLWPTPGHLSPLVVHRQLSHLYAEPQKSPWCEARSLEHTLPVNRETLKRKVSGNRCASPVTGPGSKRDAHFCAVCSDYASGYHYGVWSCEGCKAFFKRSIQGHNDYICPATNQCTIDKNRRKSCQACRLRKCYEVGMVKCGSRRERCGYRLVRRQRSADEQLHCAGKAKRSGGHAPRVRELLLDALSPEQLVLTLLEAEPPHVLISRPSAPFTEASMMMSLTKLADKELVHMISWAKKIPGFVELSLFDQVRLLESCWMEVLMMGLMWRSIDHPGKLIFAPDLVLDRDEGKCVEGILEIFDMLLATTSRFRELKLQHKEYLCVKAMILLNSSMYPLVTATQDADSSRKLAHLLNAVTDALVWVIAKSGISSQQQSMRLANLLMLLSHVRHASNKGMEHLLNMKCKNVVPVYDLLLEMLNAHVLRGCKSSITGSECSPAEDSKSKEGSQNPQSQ

Estrogen receptor beta [21] = biological target: T4, Estrogen receptor beta

c1ccc(CNC2=Nc3ccccc3CS2)nc1
EC50 [1]: > 67.5 µM (inactive)

O=C(/C=C/Nc1ccc(F)c(Cl)c1)c1ccco1
EC50 (cells): > 67.5 µM (inactive)
IC50 (Protein skinhead-1): 25.2 µM (active)
EC50 [2]: > 67.5 µM (inactive)

COc1ccc(S(=O)(=O)Nc2ccc(Nc3ccccc3)cc2)cc1
IC50 [3]: > 69.5 µM (inactive)
IC50 [4]: 12 µM (inactive)

C[C@H](CO)N1C[C@H](C)[C@@H](CN(C)S(=O)(=O)c2ccc(Cl)cc2)OCCCC[C@H](C)Oc2ccc(NS(=O)(=O)c3ccccc3)cc2C1=O
AC50 [5]: 14 µM (active)
AC50 [6]: 23.7 µM (active)
AC50 [7]: 26.3 µM (active)
AC50 [8]: 27.6 µM (active)
AC50 (Paired box protein Pax-8): 6.52 µM (active)

C[C@@H]1CN([C@@H](C)CO)C(=O)c2ccccc2-c2ccccc2CO[C@H]1CN(C)C(=O)Nc1cccc(C(F)(F)F)c1
AC50 [9]: 1.03 µM (active)
AC50 [10]: > 100 µM (inactive)
AC50 [11]: 8.76 µM (active)
AC50 [12]: 0.779 µM (active)
AC50 [13]: 1.55 µM (active)
AC50 [14]: 2.38 µM (active)

CN(C)CC(=O)N1CCCCN2[C@@H](CO)[C@@H](c3ccc(/C=C/c4ccccc4)cc3)[C@@H]2C1
AC50 [15]: 8.82 µM (active)
AC50 [16]: 23.6 µM (active)
AC50 [13]: 1.14 µM (active)

CCOC(=O)c1cc2c(=O)n3cccc(C)c3nc2n(CC(C)C)/c1=N/C(=O)c1ccco1
AC50 [17]: > 52 µM (inactive)
AC50 (CAAX prenyl protease 2): 14 µM (active)

CCCCCCCC(=O)N/N=C(/C)c1c(O)cc(C)oc1=O
CC50 [18]: > 40 µM (active)
IC50 [19]: > 100 µM (active)

CC(=N)/C(C#N)=C(/O)CSc1nnc(-c2ccc(OC(F)F)cc2)o1
IC50 (Estrogen receptor): 46.6 µM (not active)
IC50 (Estrogen receptor beta [20]): 18.6 µM (not active)
IC50 (Estrogen receptor beta [21]): 9.26 µM (active)

Cc1ccc(/N=C/C2=C(O)C3(C)CCC2C3(C)C)cc1C (stereo not drawn)
IC50 [19]: > 100 µM (active)
